Reference: patent US6251868A, “Method for treating a human immunodeficiency virus infection” (Teijin Limited, priority 1998, dated 2001)
“Also recorded” adds a separate entry of the source.

Assays:
[1] = tested on: uninfected human T-lymphoid cell-line, H-9; test: Viability and growth of uninfected H-9 cells (trypan-blue exclusion); type: cell-based; settings: for cell viability (percentage of viable cells): through 6 days of incubation
Experimental: Every two or three days, 50-80% of cell suspensions were removed, and the same amount of fresh medium, with the same concentrations of the compound to be analyzed were added for further incubation. At the same time-points, viable cells were counted for calculating the relative cell growth value, by the trypan-blue exclusion method. At the same time, cell viability was also monitored as the percentage of viable cells in the total cell population.

[2] = tested on: HIV-1 production of H-9/IIIB cells; test: HIV-1 p24 antigen production from H-9/IIIB cells at 1.25 or 2.5 mM (ELISA); type: cell-based, HIV-1 (HIV-1IIIB); settings: for HIV-1 production (p24 antigen) from H-9/IIIB cells: days two and four; for production of HIV-1 from chronically infected cells: high doses, up to a concentration of 2.5 mM
Experimental: H-9/IIIB cells were washed thoroughly with phosphate-buffered saline (PBS) and resuspended at a density of 1×10^5 /ml in RPMI-1640/10% FBS with or without 1.25 or 2.5 mM of γ-GCE, GSH, or NAC. Since H-9/IIIB cells are constantly producing a large quantity of virus particles, stimulation with factors such as TNF-α or PMA were not required for carrying out these experiments. After two and four days, culture supernatant was removed, centrifuged to remove cells and debris, and evaluated by HIV-1 p24 antigen quantification. Measurement of the HIV-1 p24 antigen was performed by a sensitive enzyme-linked immunosorbant assay (ELISA) (DuPont).

[3] = tested on: HIV-1 virus stock (NL4-3); test: Direct inactivation of HIV-1 by pre-incubation, then acute infection of H9 cells; type: cell-based, HIV-1 (NL4-3); settings: for infectivity of HIV-1 after pre-incubation: 4 hours at 37° C., no viral production 15 days post-infection
Experimental: An HIV-1 virus stock (NL4-3) containing 6 ng of HIV-1 p24 antigen was pre-incubated in the presence or absence of γ-GCE in 20 ml of RPMI-1640/10% FBS for 4 hr at 37° C. Afterwards, acute infection of H9 cells were carried out, using […] of each pretreated virus suspension into 1 ml of the cell suspension without γ-GCE, as described in the previous subsection. Sampling and maintenance of cell culture were also performed, following the same procedure as described in the previous subsection, without adding any γ-GCE through passage.

[4] = tested on: HIV-1 strain NL-4-3 in H-9 cells; test: Acute HIV-1 infection of H-9 cells; type: cell-based, HIV-1 (NL4-3)
Experimental: Virus stocks of the HIV-1NL4-3strain were prepared and titered as described previously (Hum Gene Ther 1995; 6: 1561-1571). H-9 cells (3×10^5cells.) were suspended in 1 ml of growth medium with or without γ-GCE at a variety of concentrations, and seeded in a chamber of a 24-well tissue culture plate. Virus suspension containing 30 pg of HIV-1 p24 antigen was added to each chamber, for the initial infection. Infection was carried out overnight at 37° C., then the cells were washed once with PBS, and once more with growth medium. The supernatant of the final wash was saved as a day 0 time-point. Washed cells were resuspended with corresponding media for further incubation at 37° C. Once in three days, cell suspensions and supernatants were harvested for cell counting and HIV-1 p24 antigen quantification. Measurement of cell growth, viability, and virus production were performed as described in a previous subsection. On the days of harvest, 200 μl of cell suspension was left in each well, and 800 μl of fresh medium with corresponding concentrations of γ-GCE was added to support cell growth, except day 18, on which 400 μl of cell suspension was left and 600 μl of medium was added to each well. Cell numbers at each time-point were determined accordingly, based on the accumulation of dilution factors along with the frequency of passage.

[5] = tested on: HIV-1 production of H-9/IIIB cells; test: HIV-1 p24 antigen production from H-9/IIIB cells at low, non-toxic doses; type: cell-based, HIV-1 (HIV-1IIIB); settings: for HIV-1 production (p24 antigen) of H-9/IIIB cells: days three and six
Experimental: H-9/IIIB cells were washed with PBS and seeded at a density of 2×10^5 /ml in RPMI-1640/10% FBS with or without 0.2or 0.4 mM of γ-GCE. Three and six days after initiation of experiments, culture supernatants were sampled and assayed, as described above. On day three, 72% of each cell suspension was removed, and fresh medium with a corresponding GSH pro-drug was added. Total HIV-1 p24 antigen production values on day six were deduced by multiplying raw values, on day six, with the dilution factor on day three.

[6] = tested on: H-9/IIIB cells (H-9 cells infected with HIV-1IIIB); test: Viability and growth of chronically HIV-1-infected H-9/IIIB cells (trypan-blue exclusion); type: cell-based, human
Experimental: The uninfected human T-lymphoid cell-line, H-9, or H-9 cells infected with an HIV-1 strain, HIV-1IIIB (H-9/IIIB) (Science 1984; 224:497-500), were seeded in 24 or 96 well tissue culture plates at a density of 2-2.5×10^5 /ml and maintained in RPMI-1640 tissue culture medium supplemented with 10% fetal bovine serum (FBS), with or without a variety of concentrations of γ-GCE, GSH, or NAC. Every two or three days, 50-80% of cell suspensions were removed, and the same amount of fresh medium, with the same concentrations of the compound to be analyzed were added for further incubation. At the same time-points, viable cells were counted for calculating the relative cell growth value, by the trypan-blue exclusion method. At the same time, cell viability was also monitored as the percentage of viable cells in the total cell population. […]

[7] = some decrease in relative cell growth, minimal decrease in viability after 6 days

SMILES: N[C@@H](CCC(=O)N[C@@H](CS)C(=O)NCC(=O)O)C(=O)O [GSH, glutathione]
- effect on cell viability and growth of uninfected H-9 cells ([1]; 2.5 mM): no negative effects on growth
- cell viability (percentage of viable cells) ([1]; uninfected H-9 cells, 2.5 mM): ≥ 90%
- HIV-1 production (p24 antigen) from H-9/IIIB cells ([2]; 1.25 mM): neither GSH (triangles) nor NAC (rectangles) can overwhelm the vigorous HIV-1 production; also recorded: Neither GSH nor NAC could overwhelm the vigorous HIV-1 production; also recorded: did not alter viral expression
- HIV-1 production (p24 antigen) from H-9/IIIB cells ([2]; 2.5 mM): increased the virus production
- production of HIV-1 from chronically infected cells [2]: neither GSH nor other GSH precursors show inhibitory effects

SMILES: CCOC(=O)[C@H](CS)NC(=O)CC[C@H](N)C(=O)O [γ-GCE, γ-L-glutamyl-L-cysteine ethyl ester]
- propagation of HIV-1 in H-9 cells after pre-incubation of virus ([3]; 625 μM, 4 hours): only some delay of the onset
- infectivity of HIV-1 after pre-incubation ([3]; 1.25 mM): completely inactivates; also recorded: loss of infectivity
- infectivity of HIV-1 after pre-incubation ([3]; 2.5 mM): completely inactivates; also recorded: loss of infectivity
- time in which infectivity of HIV-1 is directly inhibited ([3]; relatively high doses): within four hours
- viral infectivity after pre-incubation ([3]; same concentrations (625 μM-2.5 mM), one hour, data not illustrated): did not show significant interference
- effect on cell viability and growth of uninfected H-9 cells ([1]; 2.5 mM): unaffected; also recorded: no negative effects on cell viability and growth
- concentration giving equivalent cytotoxic profile on H-9 cells [1, 7]: ~5000 µM
- cell viability (percentage of viable cells) ([1]; uninfected H-9 cells, 2.5 mM): ≥ 90%
- propagation of HIV-1 (total HIV-1 p24 antigen) ([4]; 1.6 mM, 21 days postinfection): completely blocked
- syncytia-formation ([4]; 1.6 mM, data not illustrated): not significantly observed
- growth and viability of HIV-1-inoculated H-9 cells ([4]; 1.6 mM, entire experiments): continued to grow actively, maintaining high viability
- acute infection (total HIV-1 p24 antigen) ([4]; 400-800 μM): not inhibited significantly
- propagation of HIV-1 in acute infection of T-lymphocytic cells ([4]; relatively high doses): entirely blocked
- HIV-1 production (p24 antigen) from H-9/IIIB cells ([2]; 1.25 mM): almost completely shut-off
- HIV-1 production (p24 antigen) from H-9/IIIB cells ([2]; 2.5 mM): almost completely shut-off
- production of HIV-1 from chronically infected cells [2]: potently inhibits the production of HIV-1
- HIV-1 production (p24 antigen) of H-9/IIIB cells ([5]; 200 μM): significantly inhibited
- HIV-1 production (p24 antigen) of H-9/IIIB cells ([5]; 400 μM): significantly inhibited
- viral production from chronically HIV1-expressing cells ([5]; lower concentrations (200-400 μM), viability not affected): significantly represses
- discrepancy of the thresholds of the toxic doses between infected and uninfected cells [6]: more than ten-fold
- cell viability of H-9/IIIB cells ([6]; 200 μM and 400 μM (either dose)): > 86%
- cell growth of H-9/IIIB cells ([6]; 400 μM): Slower cell growth
- cell growth of H-9/IIIB cells ([6]; 800 μM): dramatically impairs growth; also recorded: dramatically impaired
- cell growth of H-9/IIIB cells ([6]; 800 μM, after 12 days of treatment): no significant cell growth
- sensitivity of H-9/IIIB cells to γ-GCE relative to uninfected cells (selective toxicity) ([6]; 5 mM on H-9 vs 400 μM on H-9/IIIB, equivalent cytotoxic profiles): approximately 12.5 times
- cell growth relative to control ([6]; H-9/IIIB, 800 μM, day six): less than 40 % of the control
- concentration giving equivalent cytotoxic profile on H-9/IIIB cells [6, 7]: ~400 µM

SMILES: CC(=O)N[C@@H](CS)C(=O)O [NAC, N-acetylcysteine]
- effect on cell viability and growth of uninfected H-9 cells ([1]; 2.5 mM): no negative effects on growth
- cell viability, lowest value ([1]; uninfected H-9 cells, 2.5 mM, Day 4): 91.75±0.45%
- cell viability (percentage of viable cells) ([1]; uninfected H-9 cells, 2.5 mM): ≥ 90%
- HIV-1 production (p24 antigen) from H-9/IIIB cells ([2]; 1.25 mM): neither GSH (triangles) nor NAC (rectangles) can overwhelm the vigorous HIV-1 production; also recorded: Neither GSH nor NAC could overwhelm the vigorous HIV-1 production; also recorded: did not alter viral expression
- HIV-1 production (p24 antigen) from H-9/IIIB cells ([2]; 2.5 mM): increased the virus production
